Test results taken from article PMC12373846, “Hemoglobin as a pseudoperoxidase and drug target for oxidative stress-related diseases” (Signal Transduction and Targeted Therapy, 2025).
Several values for one entry are separate records, joined by “and”; a condition that tells them apart may be missing. Equal entries are not always repeated. Where two headings read alike, the source gives them in different places.

Legend:
[1] = PK-BBB brain-plasma permeability; type: in vivo, mouse; conditions: 5 mg/kg IV
Protocol: For the brain-plasma permeability assessment, brain tissues from male ICR mice (n = 3 per time point) were collected following euthanasia by CO2 inhalation. Brains were excised, rinsed with saline, blotted dry, and transferred into pre-labeled Eppendorf tubes (one brain per tube). Samples were snap-frozen on dry ice and stored at -80 °C until analysis. Brain samples were processed using the same LC-MS/MS method. The brain-to-plasma concentration ratio was calculated as the concentration of drug in brain tissue divided by the corresponding plasma concentration.

aged C57BL/6J mice = test: Survival of aging mice; type: in vivo, mouse
Protocol: Aged 1-year-old C57BL/6J animals were purchased from Janvier Labs (France) and quarantined in the IBS Animal Facility for 2 weeks before the experiment. The animals were weighed, and their water consumption (in grams) was monitored for 3 days before the appropriate drug concentration was calculated for each dose group. The animals were randomly assigned to the drug/control and dose groups. […] The drug concentration (in water) was modified on the basis of changes in animal weight and corresponding water consumption every 3 months. Basal body temperature and body weight were monitored every 2 weeks. The care and handling of the animals were performed in accordance with the guidelines of the Institutional Animal Care and Use Committee of IBS (Daejeon, South Korea).

purified mouse RBCs = test: Isolated red blood cell H2O2 assay; type: cell-based; conditions: 1 µM H2O2
Protocol: RBCs were isolated following a modified version of the protocol described by Hanson et al. (2008). Whole blood was collected from male ICR mice (5–6 weeks old) via retro-orbital bleeding under isoflurane anesthesia. Blood was transferred using heparin-coated capillaries into EDTA-coated microcentrifuge tubes and centrifuged at 500 x g for 10 min. Plasma and buffy coat were removed, and the RBC pellet was washed three times with phosphate-buffered saline (PBS) containing 2% fetal bovine serum (FBS) to remove leukocytes and plasma components. The final RBC suspension was adjusted to 5 x 10^3 cells/µL, and cell concentration was verified using an automated hematology analyzer (Horiba Microsemi LC-662).
H2O2 was quantified using the ROS-Glo H2O2 Assay kit (Promega) according to the manufacturer’s protocol. RBCs were dispensed into white 96-well plates at a final volume 70 µL per well. KDS12025 was tested at final concentrations of 0.01, 0.1, and 1 µM, and co-treated with 1 µM H2O2. The ROS-Glo substrate was added simultaneously to all wells. Plates were incubated for 10 min at 37°C. After incubation, ROS-Glo detection reagent was added directly to each well. Plates were then incubated for 20 min at room temperature. Luminescence was measured using a microplate reader (SpectraMax) according to kit settings. Relative luminescence units (RLU) were background-subtracted and normalized to the RBC+ H2O2 only control group. All conditions were tested in triplicate. Results present the combined average of two independent experiments; each performed with the same experimental layout and controls.

[2] = target: T1, alpha 2A (h) (antagonist radioligand) (Homo sapiens, UniProt P08913); test: SafetyScreen87 panel; conditions: 1.0E-06 M, read-out: % Inhibition of Control Specific Binding (1st, 2nd, Mean)
T1 construct: purchased DiscoverX KINOMEscan scanEDGE; Eurofins Cerep SafetyScreen87
Protocol: (§1) The possibility of KDS12025 on kinase off-target, the KINOMEscan panel of scanEDGE assay was conducted in DiscoverX (CA, USA) using a site-directed competition binding with the test compounds. The assay results are given in Supplementary Table 4 and experimental information is available on the DiscoverX web page (www.discoverx.com). Moreover, the Delta SafetyScreen87 panel assay was conducted in Eurofins Discovery (Cerep, France). The assay results are given in Supplementary Table 5 and experimental information is available on the DiscoverX web page (https://www.eurofinsdiscoveryservices.com).

[3] = target: T2, CB2 (h) (agonist radioligand) (Homo sapiens, UniProt P34972); test: SafetyScreen87 panel; conditions: 1.0E-06 M, read-out: % Inhibition of Control Specific Binding (1st, 2nd, Mean)
T2 construct: purchased DiscoverX KINOMEscan scanEDGE; Eurofins Cerep SafetyScreen87
Protocol: as §1

[4] = target: T3, MC1 (agonist radioligand) (Mus musculus, UniProt Q01727); test: SafetyScreen87 panel; conditions: 1.0E-06 M; mean; read-out: % Inhibition of Control Specific Binding (1st, 2nd, Mean)
T3 construct: purchased DiscoverX KINOMEscan scanEDGE; Eurofins Cerep SafetyScreen87
Protocol: as §1

[5] = target: T4, dopamine transporter (h) (antagonist radioligand) (Homo sapiens, UniProt Q01959); test: SafetyScreen87 panel; conditions: 1.0E-06 M, read-out: % Inhibition of Control Specific Binding (1st, 2nd, Mean)
T4 construct: Eurofins Discovery (Cerep, France) SafetyScreen87 panel
Protocol: as §1

[6] = target: T5, CCK2 (CCKB) (h) (agonist radioligand) (Homo sapiens, UniProt P32239); test: SafetyScreen87 panel
T5 construct: purchased DiscoverX KINOMEscan scanEDGE; Eurofins Cerep SafetyScreen87
Protocol: as §1

[7] = target: T6, MC4 (h) (agonist radioligand) (Homo sapiens, UniProt P32245); test: SafetyScreen87 panel; conditions: 1.0E-06 M; read-out: % Inhibition of Control Specific Binding (1st, 2nd, Mean)
T6 construct: purchased DiscoverX KINOMEscan scanEDGE; Eurofins Cerep SafetyScreen87
Protocol: as §1

[8] = system: NMDA (antagonist radioligand); test: SafetyScreen87 panel; conditions: 1.0E-06 M, read-out: % Inhibition of Control Specific Binding (1st, 2nd, Mean)
Protocol: as §1

[9] = target: T7, N neuronal alpha 4beta 2 (h) (agonist radioligand) (Homo sapiens, UniProt P17787+P43681); test: SafetyScreen87 panel; conditions: 1.0E-06 M; mean; read-out: % Inhibition of Control Specific Binding (1st, 2nd, Mean)
T7 construct: purchased DiscoverX KINOMEscan scanEDGE; Eurofins Cerep SafetyScreen87
Protocol: as §1

[10] = target: T8, M1 (h) (antagonist radioligand) (Homo sapiens, UniProt P11229); test: SafetyScreen87 panel; conditions: 1.0E-06 M; mean; read-out: % Inhibition of Control Specific Binding (1st, 2nd, Mean)
T8 construct: purchased DiscoverX KINOMEscan scanEDGE; Eurofins Cerep SafetyScreen87
Protocol: as §1

[11] = target: T9, D1 (h) (antagonist radioligand) (Homo sapiens, UniProt P21728); test: SafetyScreen87 panel; conditions: 1.0E-06 M, read-out: % Inhibition of Control Specific Binding (1st, 2nd, Mean)
T9 construct: purchased DiscoverX KINOMEscan scanEDGE; Eurofins Cerep SafetyScreen87
Protocol: as §1

[12] = system: kainate (agonist radioligand); test: SafetyScreen87 panel; conditions: 1.0E-06 M, read-out: % Inhibition of Control Specific Binding (1st, 2nd, Mean)
Protocol: as §1

[13] = target: T10, GABAA1 (h) (alpha 1,beta 2,gamma 2) (agonist radioligand) (Homo sapiens, UniProt P14867+P47870); test: SafetyScreen87 panel; conditions: 1.0E-06 M, read-out: % Inhibition of Control Specific Binding (1st, 2nd, Mean)
T10 construct: purchased DiscoverX KINOMEscan scanEDGE; Eurofins Cerep SafetyScreen87
Protocol: as §1

T10 sequence (P14867 28-456): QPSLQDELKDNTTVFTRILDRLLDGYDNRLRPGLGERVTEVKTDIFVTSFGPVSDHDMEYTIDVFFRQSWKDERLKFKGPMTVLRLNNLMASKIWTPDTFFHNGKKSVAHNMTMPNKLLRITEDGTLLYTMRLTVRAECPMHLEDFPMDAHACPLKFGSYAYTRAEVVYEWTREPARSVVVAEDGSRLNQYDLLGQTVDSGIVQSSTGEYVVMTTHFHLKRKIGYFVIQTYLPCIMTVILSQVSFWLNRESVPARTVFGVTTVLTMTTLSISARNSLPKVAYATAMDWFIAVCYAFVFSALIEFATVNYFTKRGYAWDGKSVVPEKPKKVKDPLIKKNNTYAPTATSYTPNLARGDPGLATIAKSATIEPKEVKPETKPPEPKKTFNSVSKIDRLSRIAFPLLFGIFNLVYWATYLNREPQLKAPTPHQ
T10 sequence (P47870 25-512 limits assumed): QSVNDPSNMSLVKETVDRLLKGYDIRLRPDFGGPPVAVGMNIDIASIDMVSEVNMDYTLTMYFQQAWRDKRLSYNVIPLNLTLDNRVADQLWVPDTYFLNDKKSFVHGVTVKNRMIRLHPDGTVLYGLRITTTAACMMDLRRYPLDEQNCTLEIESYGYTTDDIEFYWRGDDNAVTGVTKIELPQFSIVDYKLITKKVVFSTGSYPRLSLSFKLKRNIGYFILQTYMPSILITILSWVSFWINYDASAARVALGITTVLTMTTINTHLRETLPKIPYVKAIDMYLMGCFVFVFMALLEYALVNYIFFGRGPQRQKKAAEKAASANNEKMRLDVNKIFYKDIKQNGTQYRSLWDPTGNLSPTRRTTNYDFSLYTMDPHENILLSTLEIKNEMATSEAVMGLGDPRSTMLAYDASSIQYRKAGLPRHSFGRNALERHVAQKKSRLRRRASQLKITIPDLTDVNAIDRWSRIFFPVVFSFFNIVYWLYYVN
T10 sequence (P18507 40-467 partner limits assumed): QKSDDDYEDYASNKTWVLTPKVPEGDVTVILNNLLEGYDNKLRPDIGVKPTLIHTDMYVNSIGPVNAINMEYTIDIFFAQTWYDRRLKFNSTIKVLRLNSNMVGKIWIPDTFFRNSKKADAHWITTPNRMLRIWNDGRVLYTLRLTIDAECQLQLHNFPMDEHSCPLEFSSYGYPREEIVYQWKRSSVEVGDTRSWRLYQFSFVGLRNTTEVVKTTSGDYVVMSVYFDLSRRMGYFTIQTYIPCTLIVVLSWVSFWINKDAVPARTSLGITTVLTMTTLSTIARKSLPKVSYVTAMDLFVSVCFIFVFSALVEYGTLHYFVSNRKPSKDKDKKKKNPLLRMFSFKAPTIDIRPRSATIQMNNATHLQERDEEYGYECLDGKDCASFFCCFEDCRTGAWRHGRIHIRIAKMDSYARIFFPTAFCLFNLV
T4 sequence (Q01959 whole entry): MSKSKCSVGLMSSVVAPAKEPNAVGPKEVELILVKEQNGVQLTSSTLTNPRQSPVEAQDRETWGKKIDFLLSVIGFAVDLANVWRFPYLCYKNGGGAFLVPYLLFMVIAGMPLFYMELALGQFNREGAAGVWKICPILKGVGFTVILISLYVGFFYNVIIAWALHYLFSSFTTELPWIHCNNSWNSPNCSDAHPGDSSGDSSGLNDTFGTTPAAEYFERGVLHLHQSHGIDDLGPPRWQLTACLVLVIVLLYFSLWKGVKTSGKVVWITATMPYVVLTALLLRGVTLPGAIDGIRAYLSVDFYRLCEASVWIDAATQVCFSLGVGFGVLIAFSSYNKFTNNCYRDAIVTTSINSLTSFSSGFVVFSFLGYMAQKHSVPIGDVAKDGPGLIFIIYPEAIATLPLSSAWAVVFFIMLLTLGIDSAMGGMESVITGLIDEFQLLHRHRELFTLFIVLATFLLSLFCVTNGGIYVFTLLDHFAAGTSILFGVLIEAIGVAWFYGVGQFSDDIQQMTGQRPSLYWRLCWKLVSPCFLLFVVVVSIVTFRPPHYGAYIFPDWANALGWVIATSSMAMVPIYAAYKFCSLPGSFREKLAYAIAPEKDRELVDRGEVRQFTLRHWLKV
T2 sequence (P34972 whole entry): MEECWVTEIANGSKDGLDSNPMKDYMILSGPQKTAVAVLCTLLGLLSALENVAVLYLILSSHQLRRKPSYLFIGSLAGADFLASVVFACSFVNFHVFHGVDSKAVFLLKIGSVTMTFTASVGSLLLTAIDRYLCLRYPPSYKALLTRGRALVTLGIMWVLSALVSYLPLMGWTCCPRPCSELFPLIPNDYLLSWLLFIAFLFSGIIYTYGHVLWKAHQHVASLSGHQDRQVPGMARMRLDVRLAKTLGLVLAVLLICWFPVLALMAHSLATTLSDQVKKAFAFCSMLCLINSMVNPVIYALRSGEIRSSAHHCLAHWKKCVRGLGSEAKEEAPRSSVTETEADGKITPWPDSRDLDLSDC
T9 sequence (P21728 whole entry): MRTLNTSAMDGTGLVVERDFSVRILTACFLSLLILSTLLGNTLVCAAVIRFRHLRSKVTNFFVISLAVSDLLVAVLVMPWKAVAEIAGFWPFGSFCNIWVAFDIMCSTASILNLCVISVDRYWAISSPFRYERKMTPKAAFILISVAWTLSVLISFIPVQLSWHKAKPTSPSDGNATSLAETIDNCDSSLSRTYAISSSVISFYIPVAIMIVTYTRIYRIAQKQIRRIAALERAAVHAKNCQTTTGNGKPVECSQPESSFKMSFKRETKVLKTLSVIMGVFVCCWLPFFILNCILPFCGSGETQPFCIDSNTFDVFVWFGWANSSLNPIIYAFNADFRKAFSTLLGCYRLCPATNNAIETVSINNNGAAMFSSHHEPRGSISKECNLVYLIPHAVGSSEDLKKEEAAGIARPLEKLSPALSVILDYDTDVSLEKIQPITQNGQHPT
T1 sequence (P08913 whole entry): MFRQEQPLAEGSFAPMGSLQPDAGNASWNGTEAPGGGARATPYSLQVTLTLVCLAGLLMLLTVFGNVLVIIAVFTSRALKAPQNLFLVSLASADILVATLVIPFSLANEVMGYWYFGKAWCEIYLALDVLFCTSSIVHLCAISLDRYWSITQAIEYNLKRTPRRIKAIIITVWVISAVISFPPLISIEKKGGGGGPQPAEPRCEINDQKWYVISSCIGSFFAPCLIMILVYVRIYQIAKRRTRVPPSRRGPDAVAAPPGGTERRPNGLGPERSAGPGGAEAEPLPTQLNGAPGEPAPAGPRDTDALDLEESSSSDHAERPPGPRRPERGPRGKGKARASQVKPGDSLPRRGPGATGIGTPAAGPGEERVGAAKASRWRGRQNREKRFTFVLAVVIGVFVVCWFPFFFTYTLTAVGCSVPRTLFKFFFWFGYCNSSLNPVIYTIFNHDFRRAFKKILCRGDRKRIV
T5 sequence (P32239 whole entry): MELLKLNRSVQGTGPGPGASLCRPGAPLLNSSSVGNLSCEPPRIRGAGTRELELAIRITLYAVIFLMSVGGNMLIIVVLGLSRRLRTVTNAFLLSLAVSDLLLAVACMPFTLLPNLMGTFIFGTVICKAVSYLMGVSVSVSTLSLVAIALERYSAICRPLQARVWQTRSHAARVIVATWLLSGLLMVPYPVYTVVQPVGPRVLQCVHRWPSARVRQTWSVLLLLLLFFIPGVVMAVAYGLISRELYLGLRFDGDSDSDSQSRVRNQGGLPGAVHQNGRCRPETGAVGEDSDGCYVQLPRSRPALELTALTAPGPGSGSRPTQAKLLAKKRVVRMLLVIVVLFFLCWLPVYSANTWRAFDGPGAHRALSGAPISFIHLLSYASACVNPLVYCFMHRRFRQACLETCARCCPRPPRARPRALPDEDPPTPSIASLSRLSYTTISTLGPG
T7 sequence (P43681 29-627 limits assumed): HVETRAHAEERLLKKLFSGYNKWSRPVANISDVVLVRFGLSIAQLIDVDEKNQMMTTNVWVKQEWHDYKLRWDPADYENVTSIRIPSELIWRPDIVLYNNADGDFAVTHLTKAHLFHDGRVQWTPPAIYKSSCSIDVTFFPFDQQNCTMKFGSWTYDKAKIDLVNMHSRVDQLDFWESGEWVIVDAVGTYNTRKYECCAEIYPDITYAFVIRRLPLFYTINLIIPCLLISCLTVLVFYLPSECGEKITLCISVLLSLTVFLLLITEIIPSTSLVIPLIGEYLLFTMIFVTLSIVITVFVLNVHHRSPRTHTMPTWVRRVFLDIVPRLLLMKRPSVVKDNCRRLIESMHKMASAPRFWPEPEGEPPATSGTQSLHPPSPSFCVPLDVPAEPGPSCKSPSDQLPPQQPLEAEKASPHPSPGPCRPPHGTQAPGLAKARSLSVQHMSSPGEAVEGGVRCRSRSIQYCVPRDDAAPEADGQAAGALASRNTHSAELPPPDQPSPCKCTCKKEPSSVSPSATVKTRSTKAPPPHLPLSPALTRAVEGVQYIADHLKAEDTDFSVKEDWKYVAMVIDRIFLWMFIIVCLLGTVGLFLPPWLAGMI
T7 sequence (P17787 26-502): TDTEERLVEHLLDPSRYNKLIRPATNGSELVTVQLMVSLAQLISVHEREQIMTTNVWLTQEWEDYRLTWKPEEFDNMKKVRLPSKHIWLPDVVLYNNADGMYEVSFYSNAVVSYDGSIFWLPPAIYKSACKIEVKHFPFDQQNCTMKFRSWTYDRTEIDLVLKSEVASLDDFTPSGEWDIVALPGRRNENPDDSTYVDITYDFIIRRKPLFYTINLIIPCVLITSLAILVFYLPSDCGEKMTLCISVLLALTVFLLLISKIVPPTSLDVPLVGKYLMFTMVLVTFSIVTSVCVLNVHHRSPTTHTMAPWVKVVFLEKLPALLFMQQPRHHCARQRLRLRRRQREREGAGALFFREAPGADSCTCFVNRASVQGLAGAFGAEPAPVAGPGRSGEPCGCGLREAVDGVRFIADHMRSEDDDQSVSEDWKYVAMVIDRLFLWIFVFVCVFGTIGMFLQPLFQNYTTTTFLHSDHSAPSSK

Structure (SMILES): CNc1ccc(NCCc2ccccc2OC)cc1.Cl [KDS12025, N^1-(2-methoxyphenethyl)-N^4-methylbenzene-1,4-diamine hydrochloride salt]
- Brain concentration ([1]; 2 h): BLQ
- Brain concentration ([1]; 4 h): BLQ
- Brain concentration ([1]; 8 h): BLQ
- Plasma concentration ([1]; 8 h): BLQ
- concentration at 0.083 h ([1]; male, ICR, mouse, brain, 0.083 h, read-out: Brain concentration): 1680 ± 34.2 ng/g
- Kp at 0.083 h ([1]; male, ICR, mouse, brain, 0.083 h, read-out: Brain to plasma ratio (B/P)): 0.9 ± 0.17
- concentration at 0.25 h ([1]; male, ICR, mouse, brain, 0.25 h, read-out: Brain concentration): 589 ± 44.1 ng/g
- Kp at 0.25 h ([1]; male, ICR, mouse, brain, 0.25 h, read-out: Brain to plasma ratio (B/P)): 0.76 ± 0.04
- concentration at 0.5 h ([1]; male, ICR, mouse, brain, 0.5 h, read-out: Brain concentration): 234 ± 31.7 ng/g
- Kp at 0.5 h ([1]; male, ICR, mouse, brain, 0.5 h, read-out: Brain to plasma ratio (B/P)): 0.84 ± 0.19
- concentration at 1 h ([1]; male, ICR, mouse, brain, 1 h, read-out: Brain concentration): 65.6 ± 12.3 ng/g
- Kp at 1 h ([1]; male, ICR, mouse, brain, 1 h, read-out: Brain to plasma ratio (B/P)): 0.79 ± 0.25
- half-life ([1]; male, ICR, mouse, brain, mice, read-out: brain t1/2 (PK-BBB) (converted)): 14.4 min
- concentration at 0.083 h ([1]; male, ICR, mouse, plasma, 0.083 h, read-out: Plasma concentration): 1910 ± 323 ng/mL
- concentration at 0.25 h ([1]; male, ICR, mouse, plasma, 0.25 h, read-out: Plasma concentration): 782 ± 104 ng/mL
- concentration at 0.5 h ([1]; male, ICR, mouse, plasma, 0.5 h, read-out: Plasma concentration): 284 ± 45.5 ng/mL
- concentration at 1 h ([1]; male, ICR, mouse, plasma, 1 h, read-out: Plasma concentration): 84.7 ± 10.3 ng/mL
- concentration at 2 h ([1]; male, ICR, mouse, plasma, 2 h): 15.5 ± 7.09 ng/mL
- concentration at 4 h ([1]; male, ICR, mouse, plasma, 4 h): 2.99 ± 0.52 ng/mL
- AUC ([1]; male, ICR, mouse, plasma, mice, read-out: plasma AUCall (PK-BBB)): 721 ng·h/mL
- clearance ([1]; male, ICR, mouse, plasma, mice, read-out: plasma Cl (PK-BBB) (converted)): 115 mL/min/kg
- half-life ([1]; male, ICR, mouse, plasma, mice, read-out: plasma t1/2 (PK-BBB) (converted)): 39 min
- brain AUCall (PK-BBB) ([1]; mice): 437.01 ng·h/mL
- brain Cmax (PK-BBB) ([1]; mice): 1680.64 ng/mL
- increase of median survival (aged C57BL/6J mice; 0.1 and 1 mg/kg/day ad libitum from 14 months): ~ 14%
- adverse effects during chronic administration (aged C57BL/6J mice; 22-month administration, 0.1 and 1 mg/kg/day): no apparent adverse effects were observed
- female mice surviving at 31 months (aged C57BL/6J mice; KDS12025 groups, when all control mice had died): 46.7%
- H2O2 level normalized to RBC+H2O2 only (Fig. S20t) (purified mouse RBCs; 0.01 µM): 37.08±7.98
- H2O2 level normalized to RBC+H2O2 only (Fig. S20t) (purified mouse RBCs; 0.1 µM): 20.61±3.586
- H2O2 level normalized to RBC+H2O2 only (Fig. S20t) (purified mouse RBCs; 1 µM): 7.116±4.5
- activity ([2]; mean): 86.1%
- activity [2]: 86.9% and 85.4%
- activity ([3]; mean): 84.6%
- activity [3]: 78.4% and 90.8%
- activity [4]: 109%
- activity ([5]; mean): 107%
- activity [5]: 102% and 111%
- activity ([6]; 1.0E-06 M; read-out: % Inhibition of Control Specific Binding (1st, 2nd, Mean)): 97%
- activity ([6]; read-out: % Inhibition of Control Specific Binding (1st, 2nd, Mean); 1.0E-06 M): 107%
- activity [7]: 88.7%
- activity ([8]; mean): 98.7%
- activity [8]: 97.8% and 99.6%
- activity [9]: 98.4%
- activity [10]: 91.8%
- activity ([11]; mean): 97.5%
- activity [11]: 91.1% and 104%
- activity ([12]; mean): 97.4%
- activity [12]: 76.8% and 118%
- activity ([13]; mean): 95.1%
- activity [13]: 92.4% and 97.8%
